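96-well plates; 48 h exposure; 5 concentrations. Endpoints by linear interpolation between flanking doses. Not reached: highest tested concentration assigned. The concentration for full growth arrest is given as TGI.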
What was measured:
Test in all cases: growth of human tumour cells (NCI), 48 h
KM12 colon = test system: KM12 colon
MOLT-4 leukemia = test system: MOLT-4 leukemia
OVCAR-8 ovarian = test system: OVCAR-8 ovarian
CCRF-CEM leukemia = test system: CCRF-CEM leukemia
K-562 leukemia = test system: K-562 leukemia
SNB-19 CNS = test system: SNB-19 CNS
RXF 393 renal = test system: RXF 393 renal
DMS 273 small cell lung = test system: DMS 273 small cell lung
SK-MEL-28 melanoma = test system: SK-MEL-28 melanoma
NCI-H522 lung = test system: NCI-H522 lung
RXF-631 renal = test system: RXF-631 renal
M19-MEL melanoma = test system: M19-MEL melanoma
M14 melanoma = test system: M14 melanoma
HT29 colon = test system: HT29 colon
NCI-H460 lung = test system: NCI-H460 lung
SF-295 CNS = test system: SF-295 CNS
IGROV1 ovarian = test system: IGROV1 ovarian
SNB-78 CNS = test system: SNB-78 CNS
NCI-H23 lung = test system: NCI-H23 lung
SR leukemia = test system: SR leukemia
HL-60(TB) leukemia = test system: HL-60(TB) leukemia
HCT-116 colon = test system: HCT-116 colon
SK-OV-3 ovarian = test system: SK-OV-3 ovarian
KM20L2 colon = test system: KM20L2 colon
U251 CNS = test system: U251 CNS
HOP-62 NSCLC = test system: HOP-62 NSCLC
OVCAR-5 ovarian = test system: OVCAR-5 ovarian
A498 renal = test system: A498 renal
TK-10 renal = test system: TK-10 renal
UO-31 renal = test system: UO-31 renal
EKVX NSCLC = test system: EKVX NSCLC
HOP-92 NSCLC = test system: HOP-92 NSCLC
UACC-62 melanoma = test system: UACC-62 melanoma
ACHN renal = test system: ACHN renal
UACC-257 melanoma = test system: UACC-257 melanoma
CAKI-1 renal = test system: CAKI-1 renal
LXFL 529 NSCLC = test system: LXFL 529 NSCLC
NCI-H226 lung = test system: NCI-H226 lung
SNB-75 CNS = test system: SNB-75 CNS
COLO 205 colon = test system: COLO 205 colon
SW-620 colon = test system: SW-620 colon
SN12C renal = test system: SN12C renal
SK-MEL-5 melanoma = test system: SK-MEL-5 melanoma
SF-539 CNS = test system: SF-539 CNS
LOX IMVI melanoma = test system: LOX IMVI melanoma
SK-MEL-2 melanoma = test system: SK-MEL-2 melanoma
786-0 renal = test system: 786-0 renal
MALME-3M melanoma = test system: MALME-3M melanoma
SF-268 CNS = test system: SF-268 CNS
OVCAR-4 ovarian = test system: OVCAR-4 ovarian
HOP-18 NSCLC = test system: HOP-18 NSCLC
RPMI-8226 leukemia = test system: RPMI-8226 leukemia
DMS 114 small cell lung = test system: DMS 114 small cell lung
A549 NSCLC = test system: A549 NSCLC
XF 498 CNS = test system: XF 498 CNS
HCT-15 colon = test system: HCT-15 colon
DLD-1 colon = test system: DLD-1 colon
OVCAR-3 ovarian = test system: OVCAR-3 ovarian

## CC(=O)O[C@H]1CCC(C)=CCC[C@@]2(C)C(CC[C@@H]2[C@@H](C)/C=C/C(C)C)c2ccc(cc2C(=O)O)C1 (some centres undefined)
KM12 colon
  TGI: 16.5 µM
MOLT-4 leukemia
  TGI: 4.79 µM
OVCAR-8 ovarian
  TGI: 14 µM
CCRF-CEM leukemia
  TGI: 12.2 µM
K-562 leukemia
  TGI: 11.9 µM
SNB-19 CNS
  TGI: 13 µM
RXF 393 renal
  TGI: 7.67 µM
DMS 273 small cell lung
  TGI: 13.3 µM
SK-MEL-28 melanoma
  TGI: 16.9 µM
NCI-H522 lung
  TGI: 6.47 µM
RXF-631 renal
  TGI: 24.5 µM
M19-MEL melanoma
  TGI: 14 µM
M14 melanoma
  TGI: 20.3 µM
HT29 colon
  TGI: 13.6 µM
NCI-H460 lung
  TGI: 10.8 µM
SF-295 CNS
  TGI: 8.43 µM
IGROV1 ovarian
  TGI: 8.53 µM
SNB-78 CNS
  TGI: 10.1 µM
NCI-H23 lung
  TGI: 6.63 µM
SR leukemia
  TGI: 7.61 µM
HL-60(TB) leukemia
  TGI: 3.86 µM
HCT-116 colon
  TGI: 11.9 µM
SK-OV-3 ovarian
  TGI: 13.8 µM
KM20L2 colon
  TGI: 14.1 µM
U251 CNS
  TGI: 8.25 µM
HOP-62 NSCLC
  TGI: 7.49 µM
OVCAR-5 ovarian
  TGI: 8.43 µM
A498 renal
  TGI: 19.8 µM
TK-10 renal
  TGI: 13.7 µM
UO-31 renal
  TGI: 9.82 µM
EKVX NSCLC
  TGI: 30.5 µM
HOP-92 NSCLC
  TGI: 13.3 µM
UACC-62 melanoma
  TGI: 3.79 µM
ACHN renal
  TGI: 15.5 µM
UACC-257 melanoma
  TGI: 14.8 µM

## CN(C)CCSC(=Nc1ccccc1)N1CCCCC1
CAKI-1 renal
  TGI: > 100 µM
KM12 colon
  TGI: 31 µM
MOLT-4 leukemia
  TGI: 58.7 µM
OVCAR-8 ovarian
  TGI: 39.7 µM
CCRF-CEM leukemia
  TGI: > 100 µM
LXFL 529 NSCLC
  TGI: 29.4 µM
K-562 leukemia
  TGI: > 100 µM
SNB-19 CNS
  TGI: > 100 µM
NCI-H226 lung
  TGI: 24.5 µM
RXF 393 renal
  TGI: 34.7 µM
SNB-75 CNS
  TGI: 59.6 µM
DMS 273 small cell lung
  TGI: 31.1 µM
COLO 205 colon
  TGI: 28.8 µM
SK-MEL-28 melanoma
  TGI: 28 µM
NCI-H522 lung
  TGI: 29 µM
SW-620 colon
  TGI: 31.6 µM
SN12C renal
  TGI: 32.6 µM
SK-MEL-5 melanoma
  TGI: 29.8 µM
M19-MEL melanoma
  TGI: 31.2 µM
M14 melanoma
  TGI: 29.9 µM
SF-539 CNS
  TGI: 38.1 µM
LOX IMVI melanoma
  TGI: 30 µM
HT29 colon
  TGI: 33 µM
SK-MEL-2 melanoma
  TGI: 31.3 µM
NCI-H460 lung
  TGI: 33.8 µM
SF-295 CNS
  TGI: > 100 µM
786-0 renal
  TGI: 30 µM
IGROV1 ovarian
  TGI: 29.8 µM
NCI-H23 lung
  TGI: 37.3 µM
MALME-3M melanoma
  TGI: 35.2 µM
SR leukemia
  TGI: 97.3 µM
HL-60(TB) leukemia
  TGI: 49.5 µM
SF-268 CNS
  TGI: 38.8 µM
OVCAR-4 ovarian
  TGI: 40.2 µM
HCT-116 colon
  TGI: 33.8 µM
SK-OV-3 ovarian
  TGI: > 100 µM
HOP-18 NSCLC
  TGI: 33.5 µM
KM20L2 colon
  TGI: 31.7 µM
U251 CNS
  TGI: > 100 µM
HOP-62 NSCLC
  TGI: > 100 µM
OVCAR-5 ovarian
  TGI: 35.3 µM
RPMI-8226 leukemia
  TGI: 87.4 µM
DMS 114 small cell lung
  TGI: 26.5 µM
A549 NSCLC
  TGI: > 100 µM
XF 498 CNS
  TGI: 30 µM
HCT-15 colon
  TGI: 30 µM
TK-10 renal
  TGI: 33.1 µM
UO-31 renal
  TGI: 52.5 µM
DLD-1 colon
  TGI: 31.5 µM
HOP-92 NSCLC
  TGI: 27.5 µM
OVCAR-3 ovarian
  TGI: 29.8 µM
UACC-62 melanoma
  TGI: 30.4 µM
ACHN renal
  TGI: 30.5 µM
UACC-257 melanoma
  TGI: 29.6 µM

Source: PubChem BioAssay (NCI)
